Data on nine compounds can be found in US5597894A (The Louisiana State University Medical Center Foundation, priority 1995, dated 1997).

Series [1] has as its system rat pituitary cells, which express SSTR2. Put plainly: Inhibition of growth hormone (GH) release from acutely dispersed rat pituitary cells. It counts as cell-based. Conditions: in the presence of 1 nM GRF(1-29)NH2, 3 h at 37° C., number in brackets = samples tested. The source says:
Pituitaries from adult Charles River CD male rats (Wilmington, Mass.) housed under controlled conditions (lights on from 0500-1900 hrs), were dispersed and cultured using aseptic technique as previously described with modifications (Hoefer et al., Mol. Cell Endocrinol., 35:229, (1984); Ben-Jonathan et al., i Methods Enzymol., 103:249, (1983); and Heiman et al., Endocrinology, 116:410, (1985).
Briefly, pituitaries were removed from decapitated rats, sectioned, and then placed in a siliconized, liquid scintillation vial containing 2 ml 0.2% trypsin (Worthington Biochemicals, Freehold, N.J.) in sterile-filtered Krebs-Ringer bicarbonate buffer supplemented with 1% bovine serum albumin, 14 mM glucose, modified Eagle medium (MEM) vitamin solution and MEM amino acids (Gibco Laboratories, Grand Island, N.Y.) (KRBGA). All glassware was siliconized as described by Sayers et al., Endocrinology, 88:1063, (1971). The pituitary fragments were incubated in a water bath for 35 min at 37° C. with agitation. The vial contents were then poured into a scintillation vial containing 2 ml 0.1% DNase (Sigma Chemical Co., St. Louis, Mo.) in KRBGA and incubated for 2 min at 37° C. with agitation. After incubation the tissue was decanted into a 15 ml centrifuge tube and allowed to settle. The medium was discarded, and the pituitary sections were washed 3 times with 1 ml fresh KRBGA. The cells were dispersed in 2 ml 0.05% LBI (lima bean trypsin inhibitor, Worthington Biochemicals) by gently drawing the fragments into and expelling them out of a siliconized, fire-polished Pasteur pipette. Dispersed cells were filtered through a 630 μm diameter Nylon mesh (Tetko, Elmsford, N.Y.) into a fresh 15 ml centrifuge tube. An additional 2 ml of 0.05% LBI solution was used to rinse the first tube and was transferred to the second tube with filtering.
The dispersed cells were further diluted with approximately 15 ml sterile-filtered Dulbecco's modified Eagle medium (GIBCO), supplemented with 2.5% fetal calf serum (GIBCO), 3% horse serum (GIBCO), 10% fresh rat serum (stored on ice for no longer than 1 h) from the pituitary donors, 1% MEM non-essential amino acids (GIBCO), gentamycin ([…]; Sigma) and nystatin (10,000 U/ml; GIBCO). The cells were poured into a 50 ml round-bottomed glass extraction flask with a large diameter opening, counted with a hemacytometer (approximately 2,000,000 cells per pituitary), and randomly plated at a density of 200,000 cells per well (Co-star cluster 24; Rochester Scientific Co., Rochester, N.Y.). The plated cells were maintained in Dulbecco's medium in a humidified atmosphere of 95% air and 5% CO2 at 37° C. for 4 days to 5 days.
In preparation for a hormone challenge, the cells were washed 3 times with medium 199 (GIBCO) to remove old medium and floating cells. […] After 3 h at 37° C. in an air/carbon dioxide atmosphere (95/5%), the medium was removed and stored at -20 ° C. until assayed for hormone content. IC50 's (a concentration that provides half-maximal inhibition of GH release) were calculated using the computer program SigmaPlot (Jandel Scientific, San Rafael, Calif.).

A short description of series [2]: Stability of 131I-labeled peptides stored in saline. It counts as physicochemical. Conditions: one week after labeling. On the procedure: All specimen activity (μCi) was measured in a dose calibrator at least 30 minutes prior to intravenous injection. Radiolabeled peptide was injected through a peripheral arm vein in a free-flowing intravenous line. One week after labeling, only 30% of the ^131 I-labeled multi-tyrosinated peptides WOC-3A and WOC-3B compounds stored in saline had degraded.

Series [3] deals with T1, type 2 somatostatin receptors (SSTR2) (Homo sapiens, UniProt P30874).
T1 construct: IMR32 membrane fractions (100-150 μg) were incubated with 0.015 pM; host or cells: IMR32 human neuroblastoma cells (membrane fractions)
Put plainly: Somatostatin receptor binding assay on IMR32 membranes. On the procedure: The IMR32 cells were maintained in minimal essential media (MEM) supplemented with 15% heat-inactivated fetal bovine serum, 100 U/ml penicillin, 100 μg/ml streptomycin and nonessential amino acids. Cultured cells were harvested in a buffer containing 20 mM HEPES, 2 mM MgCl2, 5 mM EDTA, 1 mM 2-mercaptoethanol, 150 mM NaCl, and 50 μg/ml phenylmethylsulfonylfluoride (PMSF), (pH 7.4) at a concentration of 1×10^6 cells/ml. Cell membranes were prepared according to the method of O'Dorisio, M. S. et al., Cell Growth and Differentiation, 5:1-8, 1994. Membrane fractions were prepared by differential centrifugation and the membranes resuspended in buffer and stored at -80° for receptor binding studies.
Binding assays were carried out according to the method of O'Dorisio et al., supra. […] The reaction was terminated by centrifugation at 11,000×G for 3 minutes. Supernatant fluid was aspirated and the radioactivity of bound ligand in the pellet quantified in a gamma counter.
Specific binding was calculated using the difference between total and non-specific (in the presence of 1 μM unlabeled ligand) binding. Equilibrium dissociation constants (KD) and the maximal number of binding sites (Bmax) were determined using seven concentrations of unlabeled peptide in a competitive binding curve and calculated using a computerized nonlinear least squares fit to the mass-law equation of Munson and Rodbard, Munson, P. J. et al., Anal. Biochem., 107:220-239, 1980, as modified by McPhearson, G. A., J. of Pharm. Meth., 14:213-228, 1985.

Series [4] relates to bronchioloalveolar carcinoma of the lung. Put plainly: Subcutaneous octreotide acetate therapy in a human patient. The note with it: 2 mg/day subcutaneous. From the text: The patient is a person diagnosed with bronchioloalveolar carcinoma of the lung approximately four years ago. […] underwent a right upperlobectomy and intensive chemotherapy with multiple agents.
The test system of series [5] is bronchioloalveolar carcinoma of the lung (somatostatin receptor-expressing tumors). Kind of series: Biodistribution and dosimetry of 131I WOC-3A (1.6 mCi i.v.) in a human patient. The note with it: extrapolated for a dose of 1,500 mCi. It is filed as in vivo. On the procedure: A batch of ^131 I WOC-3A (1.6 mCi) was made (Iso-Tex Corporation, Friendswood, TX) and its sterility and pyrogenicity tested at Iso-Tex. Radiolabeled WOC-3A was injected intravenously and the pharmacokinetics and biodistribution of the radiolabeled compound were calculated. The tumor/normal tissue ratio of distribution of radiolabeled WOC-3A was approximately 3:1 to 6:1.
Following injection of 1.6 mCi of ^131 I WOC-3A, the patient underwent three days of nuclear medicine scanning using a 3-headed SPECT camera as well as an ADAC camera. In addition, whole body radiation counts were obtained to calculate whole-body loss of radioisotope over the three day period. […] Bone marrow would receive in excess of 450 rads (a dose requiring bone marrow transplantation in 50% of patients). Thus, in preparation for bone marrow transplantation, the patient underwent bone marrow harvest to provide cells for reinfusion after WOC-3 therapy and sufficient clearance of the radiolabeled analog from the patient's circulation.

The mark [6] stands for this setting: IMR32 membranes, competitive binding, 17° C., 30 minutes.

Like-named read-outs stand apart in the source and are kept apart here. Positions of bridges follow the written chain, without caps; N, C: chain ends. Non-standard residues stand in square brackets, D forms with d. Residues, ends and D or L forms follow the SMILES beside them.

T1 sequence (P30874 whole entry): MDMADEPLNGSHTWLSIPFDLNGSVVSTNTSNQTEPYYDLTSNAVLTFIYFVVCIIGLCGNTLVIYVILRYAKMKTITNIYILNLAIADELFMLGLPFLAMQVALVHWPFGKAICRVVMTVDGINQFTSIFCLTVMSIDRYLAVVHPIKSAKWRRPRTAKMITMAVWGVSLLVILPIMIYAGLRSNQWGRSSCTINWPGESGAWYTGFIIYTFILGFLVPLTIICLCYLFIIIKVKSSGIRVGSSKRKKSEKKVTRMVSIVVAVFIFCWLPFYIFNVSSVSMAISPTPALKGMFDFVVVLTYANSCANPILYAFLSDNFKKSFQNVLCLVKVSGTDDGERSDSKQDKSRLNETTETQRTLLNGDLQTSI

In general, IC50 refers to the midpoint of a concentration-inhibition curve. For `CC(C)[C@@H]1NC(=O)[C@H](CCCCN)NC(=O)[C@@H](Cc2c[nH]c3ccccc23)NC(=O)[C@H](Cc2ccc(O)cc2)NC(=O)[C@@H](NC(=O)[C@@H](Cc2ccc(O)cc2)NC(=O)[C@@H](N)Cc2ccc(O)cc2)CSSC[C@@H](C(=O)N[C@H](C(N)=O)[C@@H](C)O)NC1=O` [WOC-3B, cyclic(tyrosine-D-tyrosine-cysteine-tyrosine-D-tryptophan-lysine-valine-cy steine-threonine)] (H-Y[dY]CY[dW]KVCT-NH2; disulfide 3-8), in series [1], the IC50 was found to be 0.66 ± 0.06 nM. In series [2], the “Fraction of labeled peptide degraded” value was determined as 30%.
As a reminder, the Kd is the equilibrium constant for the complex coming apart. As to `CC(C)[C@@H]1NC(=O)[C@H](CCCCN)NC(=O)[C@@H](Cc2c[nH]c3ccccc23)NC(=O)[C@H](Cc2ccc(O)cc2)NC(=O)[C@@H](NC(=O)[C@H](N)Cc2ccc(O)cc2)CSSC[C@@H](C(=O)N[C@H](C(N)=O)[C@@H](C)O)NC1=O` [WOC-2A, cyclic-(D-tyrosine-cysteine-tyrosine-D-tryptophan-lysine-valine-cysteine-t hreonine-NH2)], the IC50 in series [1] worked out at 4.84 ± 0.58 nM. In series [3] (setting [6]), this compound returned a Kd of 5.73 ± 0.22 nM.
`C[C@@H](O)[C@@H]1NC(=O)[C@H](CCCCN)NC(=O)[C@@H](Cc2c[nH]c3ccccc23)NC(=O)[C@H](Cc2ccccc2)NC(=O)[C@@H](NC(=O)[C@H](N)Cc2ccccc2)CSSC[C@@H](C(=O)N[C@H](CO)[C@@H](C)O)NC1=O` [octreotide acetate, D-Phe-Cys-Phe-D-Trp-Lys-Thr-Cys-Thr(ol)]: in series [4], the Tolerability of therapy entry is “tolerated this therapy well”. In addition, the “Decrease in tumor volume” value in series [4] (initial response, tumors later progressed) is on record as 25%.
Regarding `C[C@@H](O)[C@H](NC(=O)[C@@H]1CSSC[C@H](NC(=O)[C@@H](Cc2ccccc2)NC(=O)[C@H](CCCCNC(=O)[C@H](CCCCNC(=O)[C@H](CCCCNC(=O)[C@H](N)Cc2ccc(O)cc2)NC(=O)[C@H](N)Cc2ccc(O)cc2)NC(=O)[C@H](CCCCNC(=O)[C@H](N)Cc2ccc(O)cc2)NC(=O)[C@H](N)Cc2ccc(O)cc2)NC(=O)[C@H](CCCCNC(=O)[C@H](CCCCNC(=O)[C@H](N)Cc2ccc(O)cc2)NC(=O)[C@H](N)Cc2ccc(O)cc2)NC(=O)[C@H](CCCCNC(=O)[C@H](N)Cc2ccc(O)cc2)NC(=O)[C@H](N)Cc2ccc(O)cc2)C(=O)N[C@@H](Cc2ccccc2)C(=O)N[C@H](Cc2c[nH]c3ccccc23)C(=O)N[C@@H](CCCCN)C(=O)N[C@@H]([C@@H](C)O)C(=O)N1)C(N)=O` [WOC-8, cyclic[(D-tyrosine)8-(lysine)4-(lysine)2-lysine-cysteine-phenylalanine-D-tryptophan-lysine-threonine-cysteine-threonine]], the IC50 in series [1] worked out at 2.46 ± 0.69 nM.
`C[C@@H](O)[C@H](NC(=O)[C@@H]1CSSC[C@H](NC(=O)[C@@H](Cc2ccc(O)cc2)NC(=O)[C@@H](N)Cc2ccc(O)cc2)C(=O)N[C@@H](Cc2ccccc2)C(=O)N[C@H](Cc2c[nH]c3ccccc23)C(=O)N[C@@H](CCCCN)C(=O)N[C@@H]([C@@H](C)O)C(=O)N1)C(N)=O` [WOC-2B, cyclic-(tyrosine-D-tyrosine-cysteine-phenylalanine-D-tryptophan-lysine-thr eonine-cysteine-threonine-NH2)] (H-Y[dY]CF[dW]KTCT-NH2; disulfide 3-8) came in with an equilibrium dissociation constant (Kd) in series [3] (setting [6]) of 1.2 nM.
Take `C[C@H](N)C(=O)NCC(=O)N[C@H]1CSSC[C@@H](C(=O)O)NC(=O)[C@H](CO)NC(=O)[C@H]([C@@H](C)O)NC(=O)[C@H](Cc2ccccc2)NC(=O)[C@H]([C@@H](C)O)NC(=O)[C@H](CCCCN)NC(=O)[C@H](Cc2c[nH]c3ccccc23)NC(=O)[C@H](Cc2ccccc2)NC(=O)[C@H](Cc2ccccc2)NC(=O)[C@H](CC(N)=O)NC(=O)[C@H](CCCCN)NC1=O` [Somatostatin, reference compound]: the IC50 in series [1] was 0.46 ± 0.04 nM.
For the compound `CC(C)[C@@H]1NC(=O)[C@H](CCCCN)NC(=O)[C@@H](Cc2c[nH]c3ccccc23)NC(=O)[C@H](Cc2ccc(O)cc2)NC(=O)[C@@H](NC(=O)[C@@H](Cc2ccc(O)cc2)NC(=O)[C@H](C)NC(=O)[C@@H](N)Cc2ccc(O)cc2)CSSC[C@@H](C(=O)N[C@H](C(N)=O)[C@@H](C)O)NC1=O` [WOC-3A, cyclic(tyrosine-alanine-D-tyrosine-cysteine-tyrosine-D-tryptophan-lysine-v aline-cysteine-threonine)] (H-YA[dY]CY[dW]KVCT-NH2; disulfide 4-9), the IC50 in series [1] was 0.96 ± 0.01 nM. In series [5], the “Radiation dose to bone marrow” value is over 450 rads. In addition, in series [3] (10,000-fold excess of unlabeled WOC-3A or native somatostatin), the “Displacement of bound radioactivity by unlabeled ligand” value is on record as “no radioactivity was displaced”. Also, the “Total binding of radiolabeled analog to IMR-32 membranes” value in series [3] (radiolabeled analog) is “high levels of total binding”. The “Fraction of labeled peptide degraded” value in series [2] came out at 30%.
Compound `C[C@@H](O)[C@H](NC(=O)[C@@H]1CSSC[C@H](NC(=O)[C@@H](Cc2ccc(O)cc2)NC(=O)[C@H](Cc2ccc(O)cc2)NC(=O)[C@H](Cc2ccc(O)cc2)NC(=O)[C@H](N)Cc2ccc(O)cc2)C(=O)N[C@@H](Cc2ccccc2)C(=O)N[C@H](Cc2c[nH]c3ccccc23)C(=O)N[C@@H](CCCCN)C(=O)N[C@@H]([C@@H](C)O)C(=O)N1)C(N)=O` [WOC-4, cyclic(D-tyrosine-tyrosine-tyrosine-D-tyrosine-cysteine-phenylalanine-D-tr yptophan-lysine-threonine-cysteine-threonine)] (H-[dY]YY[dY]CF[dW]KTCT-NH2; disulfide 5-10) displayed a Kd in series [3] (setting [6]) of 1 nM.
Take `CC(C)[C@@H]1NC(=O)[C@H](CCCCN)NC(=O)[C@@H](Cc2c[nH]c3ccccc23)NC(=O)[C@H](Cc2ccc(O)cc2)NC(=O)[C@@H](NC(=O)[C@H](N)Cc2ccc3ccccc3c2)CSSC[C@@H](C(=O)N[C@H](C(N)=O)[C@@H](C)O)NC1=O` [LANREOTIDE ®, Dβ-Nal-Cys-Tyr-D-Trp-Lys-Val-Cys-Thr(NH2), reference compound]: in series [1], the IC50 was 0.4 ± 0.1 nM. In addition, the Kd in series [3] was 1.05 ± 0.51 nM.
